Test results reported in ChEMBL document CHEMBL3991601, “The target landscape of clinical kinase drugs” (Science, 2017).
Active and inactive are the calls of the source.

Columns and labels:
[1] = target: T1, Glycogen phosphorylase, liver form (Homo sapiens, UniProt P06737); format: subcellular, K-562, COLO 205, SK-N-BE(2) and MV-4-11, Cell lysate; conditions: read-out: Kd apparent
T1 sequence (P06737 whole entry): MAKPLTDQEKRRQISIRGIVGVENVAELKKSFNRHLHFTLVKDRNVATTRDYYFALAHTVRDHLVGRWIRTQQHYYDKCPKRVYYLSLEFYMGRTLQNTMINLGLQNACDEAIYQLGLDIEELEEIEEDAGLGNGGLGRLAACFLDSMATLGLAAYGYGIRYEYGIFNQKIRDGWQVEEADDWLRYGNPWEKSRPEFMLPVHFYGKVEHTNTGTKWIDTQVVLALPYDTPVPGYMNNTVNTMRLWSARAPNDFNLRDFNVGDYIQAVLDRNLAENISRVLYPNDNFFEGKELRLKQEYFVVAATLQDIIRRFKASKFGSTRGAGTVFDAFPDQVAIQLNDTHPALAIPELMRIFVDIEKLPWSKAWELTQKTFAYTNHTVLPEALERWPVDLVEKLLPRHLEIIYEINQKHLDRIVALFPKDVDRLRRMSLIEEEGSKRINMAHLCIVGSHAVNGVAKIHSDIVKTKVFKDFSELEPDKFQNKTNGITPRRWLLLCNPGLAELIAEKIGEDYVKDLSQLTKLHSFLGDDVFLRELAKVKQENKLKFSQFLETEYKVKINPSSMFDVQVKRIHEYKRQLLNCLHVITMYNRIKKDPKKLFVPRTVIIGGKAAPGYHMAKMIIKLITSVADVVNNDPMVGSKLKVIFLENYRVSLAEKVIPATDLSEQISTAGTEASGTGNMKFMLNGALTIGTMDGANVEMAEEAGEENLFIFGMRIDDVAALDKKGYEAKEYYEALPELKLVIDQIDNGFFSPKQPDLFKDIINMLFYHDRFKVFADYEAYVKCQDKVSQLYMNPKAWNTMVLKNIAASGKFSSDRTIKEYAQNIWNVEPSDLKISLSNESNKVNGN

[2] = target: Serine/threonine-protein kinase B-raf (Homo sapiens, UniProt P15056)
[3] = target: T2, Peroxisomal acyl-coenzyme A oxidase 1 (Homo sapiens, UniProt Q15067)
T2 sequence (Q15067 whole entry): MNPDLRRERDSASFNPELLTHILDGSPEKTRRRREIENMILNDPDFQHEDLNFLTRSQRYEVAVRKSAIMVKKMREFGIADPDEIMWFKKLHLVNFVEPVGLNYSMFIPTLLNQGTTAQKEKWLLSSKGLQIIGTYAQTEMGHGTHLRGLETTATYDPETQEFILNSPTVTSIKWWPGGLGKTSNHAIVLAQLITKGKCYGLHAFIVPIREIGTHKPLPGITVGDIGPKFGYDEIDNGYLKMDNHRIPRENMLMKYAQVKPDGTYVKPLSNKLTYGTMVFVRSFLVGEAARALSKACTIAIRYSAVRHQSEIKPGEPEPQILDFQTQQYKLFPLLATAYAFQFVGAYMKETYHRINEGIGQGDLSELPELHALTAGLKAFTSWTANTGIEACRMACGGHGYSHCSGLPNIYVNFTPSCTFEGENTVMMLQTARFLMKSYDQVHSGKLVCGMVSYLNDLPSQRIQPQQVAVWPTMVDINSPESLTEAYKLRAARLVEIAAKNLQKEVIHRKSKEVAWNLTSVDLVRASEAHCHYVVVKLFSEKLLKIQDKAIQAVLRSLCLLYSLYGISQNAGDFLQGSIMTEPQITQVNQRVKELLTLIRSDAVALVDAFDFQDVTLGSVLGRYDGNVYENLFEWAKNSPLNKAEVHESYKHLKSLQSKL

[4] = target: T3, Cyclin-G-associated kinase (Homo sapiens, UniProt O14976)
T3 sequence (O14976 whole entry): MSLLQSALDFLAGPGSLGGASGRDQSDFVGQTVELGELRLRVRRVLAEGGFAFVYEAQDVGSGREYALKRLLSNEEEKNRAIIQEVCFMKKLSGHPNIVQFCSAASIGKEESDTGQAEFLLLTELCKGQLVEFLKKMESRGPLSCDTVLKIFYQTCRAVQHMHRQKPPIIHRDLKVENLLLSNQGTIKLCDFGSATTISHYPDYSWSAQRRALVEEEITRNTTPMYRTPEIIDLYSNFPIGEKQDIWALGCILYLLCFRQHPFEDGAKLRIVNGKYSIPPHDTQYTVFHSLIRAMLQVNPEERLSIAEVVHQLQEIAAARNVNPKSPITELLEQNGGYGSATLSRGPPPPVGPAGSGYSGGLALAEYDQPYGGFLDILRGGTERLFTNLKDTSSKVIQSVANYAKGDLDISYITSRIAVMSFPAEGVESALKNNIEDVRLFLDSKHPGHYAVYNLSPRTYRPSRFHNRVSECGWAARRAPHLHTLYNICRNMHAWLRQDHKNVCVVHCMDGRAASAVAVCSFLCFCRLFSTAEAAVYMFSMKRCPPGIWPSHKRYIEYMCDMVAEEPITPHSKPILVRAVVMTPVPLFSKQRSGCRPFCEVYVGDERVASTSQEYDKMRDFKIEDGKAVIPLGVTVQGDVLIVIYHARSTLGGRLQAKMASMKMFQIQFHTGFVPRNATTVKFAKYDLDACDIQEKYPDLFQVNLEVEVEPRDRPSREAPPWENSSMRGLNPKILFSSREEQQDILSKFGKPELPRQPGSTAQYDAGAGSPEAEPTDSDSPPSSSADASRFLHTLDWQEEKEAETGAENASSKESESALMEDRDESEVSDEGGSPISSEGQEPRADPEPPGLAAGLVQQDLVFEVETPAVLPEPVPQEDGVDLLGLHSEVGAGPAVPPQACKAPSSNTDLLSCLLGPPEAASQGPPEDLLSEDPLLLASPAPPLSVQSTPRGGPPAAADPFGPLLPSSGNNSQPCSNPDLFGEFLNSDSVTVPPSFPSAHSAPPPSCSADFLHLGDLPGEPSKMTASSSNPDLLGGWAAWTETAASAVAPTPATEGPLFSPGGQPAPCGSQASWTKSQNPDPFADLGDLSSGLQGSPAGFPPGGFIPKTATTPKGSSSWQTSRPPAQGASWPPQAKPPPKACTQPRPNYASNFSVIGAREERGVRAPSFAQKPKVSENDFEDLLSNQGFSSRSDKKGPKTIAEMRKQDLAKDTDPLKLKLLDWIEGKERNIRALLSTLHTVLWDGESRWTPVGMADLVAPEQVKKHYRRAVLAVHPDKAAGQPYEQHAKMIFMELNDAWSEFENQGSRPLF
Note: in the data inactive means no Kd found up to 30 µM.

Chain of Serine/threonine-protein kinase B-raf (P15056 whole entry): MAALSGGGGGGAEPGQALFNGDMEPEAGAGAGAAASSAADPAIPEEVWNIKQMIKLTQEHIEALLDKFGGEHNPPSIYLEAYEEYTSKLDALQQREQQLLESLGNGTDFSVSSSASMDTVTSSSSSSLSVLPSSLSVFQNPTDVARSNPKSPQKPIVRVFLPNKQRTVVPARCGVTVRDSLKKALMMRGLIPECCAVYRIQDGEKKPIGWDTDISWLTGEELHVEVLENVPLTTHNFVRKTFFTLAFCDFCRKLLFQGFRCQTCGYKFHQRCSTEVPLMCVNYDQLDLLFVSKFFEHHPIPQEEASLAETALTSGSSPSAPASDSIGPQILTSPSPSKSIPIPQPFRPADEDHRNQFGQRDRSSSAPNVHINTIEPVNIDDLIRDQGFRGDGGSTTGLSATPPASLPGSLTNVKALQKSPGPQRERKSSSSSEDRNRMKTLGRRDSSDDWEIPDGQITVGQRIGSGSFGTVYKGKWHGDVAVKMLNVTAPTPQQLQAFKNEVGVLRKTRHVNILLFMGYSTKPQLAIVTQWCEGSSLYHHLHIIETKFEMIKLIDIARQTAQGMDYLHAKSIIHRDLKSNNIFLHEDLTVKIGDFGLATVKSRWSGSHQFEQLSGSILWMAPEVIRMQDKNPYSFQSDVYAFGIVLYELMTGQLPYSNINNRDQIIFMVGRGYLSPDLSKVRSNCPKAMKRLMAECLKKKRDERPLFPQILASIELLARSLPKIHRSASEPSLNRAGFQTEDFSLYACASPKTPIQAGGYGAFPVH

Row | Compound | Kd [1] | Kd [2] | Kd [3] | Kd [4]
1 | Cn1c(=O)c(F)c(Nc2ccc(I)cc2F)c2c(=O)n(C[C@@H](O)CO)cnc21 [TAK-733] | > 30 µM (inactive) | > 30 µM (inactive) | > 30 µM (inactive) | > 30 µM (inactive)
2 | COc1cc2ncnc3c2cc1OCCCCCN(C)Cc1ccc(Br)cc1N3 [JNJ-26483327] | > 30 µM (inactive) |  | > 30 µM (inactive) | 0.12 µM (active)
3 | COc1cc2ncnc(Nc3ccc(F)c(Cl)c3)c2cc1NC(=O)/C=C/CN1CCCCC1 [DACOMITINIB ANHYDROUS] | > 30 µM (inactive) | > 30 µM (inactive) | > 30 µM (inactive) | 0.168 µM (active)
4 | C#Cc1cccc(Nc2ncnc3cc4c(cc23)OCCOCCOCCO4)c1 [ICOTINIB] | > 30 µM (inactive) | > 30 µM (inactive) | > 30 µM (inactive) | 0.725 µM (active)
5 | Cc1cc(C(=O)Nc2cc(Oc3ccc4nc(NC(=O)C5CC5)cn4n3)ccc2C)n(C)n1 [TAK-593] | > 30 µM (inactive) | > 30 µM (inactive) |  | > 30 µM (inactive)
6 | C[C@]1(O)C[C@@H](c2nc(-c3ccc4ccc(-c5ccccc5)nc4c3)c3c(N)nccn32)C1 [LINSITINIB] | > 30 µM (inactive) | > 30 µM (inactive) | > 30 µM (inactive) | > 30 µM (inactive)
7 | COc1cc2ncnc(Nc3ccc(O)cc3)c2cc1OC [WHI-P131] | > 30 µM (inactive) |  | > 30 µM (inactive) | 28.7 µM (active)
8 | O=C(O)c1ccc2c(c1)nc(Nc1cccc(Cl)c1)c1ccncc12 [SILMITASERTIB] | > 30 µM (inactive) | > 30 µM (inactive) |  | 5.16 µM (active)
9 | CN(c1ncccc1CNc1nc(Nc2ccc3c(c2)CC(=O)N3)ncc1C(F)(F)F)S(C)(=O)=O [PF-00562271] | > 30 µM (inactive) | > 30 µM (inactive) | > 30 µM (inactive) | > 30 µM (inactive)
10 | O[C@H]1CC[C@H](Nc2ncc3nc(Nc4c(F)cc(F)cc4F)n([C@H]4CCOC4)c3n2)CC1 [TANZISERTIB] | > 30 µM (inactive) | > 30 µM (inactive) | > 30 µM (inactive) | 0.156 µM (active)
11 | CN1CCN(c2nc(C3=C(c4c[nH]c5ccccc45)C(=O)NC3=O)c3ccccc3n2)CC1 [SOTRASTAURIN] | > 30 µM (inactive) | > 30 µM (inactive) |  | > 30 µM (inactive)
12 | CCOc1ccn(-c2ccc(F)cc2)c(=O)c1C(=O)Nc1ccc(Oc2ccnc(N)c2Cl)c(F)c1 [BMS-777607] | > 30 µM (inactive) |  |  | > 30 µM (inactive)
13 | Cn1cnc2c(F)c(Nc3ccc(Br)cc3Cl)c(C(=O)NOCCO)cc21 [SELUMETINIB] | > 30 µM (inactive) |  | > 30 µM (inactive) | 
14 | COc1cc2c(N3CCN(C(=O)Nc4ccc(OC(C)C)cc4)CC3)ncnc2cc1OCCCN1CCCCC1 [TANDUTINIB] | > 30 µM (inactive) |  | > 30 µM (inactive) | 
15 | COc1cc(F)c(F)c(Nc2ccc(I)cc2F)c1NS(=O)(=O)C1(C[C@H](O)CO)CC1 [REFAMETINIB] | > 30 µM (inactive) | > 30 µM (inactive) |  | > 30 µM (inactive)
16 | COc1cc2c(Oc3ccc4[nH]c(C)cc4c3F)ncnc2cc1OCCCN1CCCC1 [CEDIRANIB] | > 30 µM (inactive) |  | > 30 µM (inactive) | 
17 | CNC(=O)c1ccc(Nc2ncc(C(F)(F)F)c(NCc3nccnc3N(C)S(C)(=O)=O)n2)cc1 [DEFACTINIB] | > 30 µM (inactive) | > 30 µM (inactive) |  | > 30 µM (inactive)
18 | Cc1ccc(C(=O)Nc2ccc(Oc3cc4cnn(C)c4cc3-c3cn[nH]c3)c(F)c2)c(=O)n1-c1ccc(F)cc1 [MERESTINIB] | > 30 µM (inactive) |  | > 30 µM (inactive) | > 30 µM (inactive)
19 | CC(C)(O)CC(=O)NCCn1ccc2ncnc(Nc3ccc(Oc4cccc(C(F)(F)F)c4)c(Cl)c3)c21 [TAK-285] | > 30 µM (inactive) |  | > 30 µM (inactive) | > 30 µM (inactive)
20 | CC1(C)CNc2cc(NC(=O)c3cccnc3NCc3ccncc3)ccc21 [MOTESANIB] | > 30 µM (inactive) |  | > 30 µM (inactive) | 
21 | CN(C)C/C=C/C(=O)Nc1cc2c(Nc3ccc(F)c(Cl)c3)ncnc2cc1O[C@H]1CCOC1 [AFATINIB] | > 30 µM (inactive) |  | > 30 µM (inactive) | 
22 | C[C@@]1(C(=O)Nc2ccc(F)nc2)CCCN1c1nc(Nc2cc(C3CC3)n[nH]2)c2cccn2n1 [BMS-754807] | > 30 µM (inactive) |  |  | 
23 | CCc1nc(C(N)=O)c(Nc2ccc(N3CCC(N4CCN(C)CC4)CC3)c(OC)c2)nc1NC1CCOCC1 [GILTERITINIB] | > 30 µM (inactive) | > 30 µM (inactive) |  | 0.009 µM (active)
24 | CCN1CCN(Cc2ccc(Nc3ncc(F)c(-c4cc(F)c5nc(C)n(C(C)C)c5c4)n3)nc2)CC1 [ABEMACICLIB] | > 30 µM (inactive) | > 30 µM (inactive) |  | 2.19 µM (active)
25 | C=CC(=O)Nc1cccc(Nc2nc(Nc3ccc(N4CCN(C(C)=O)CC4)cc3OC)ncc2C(F)(F)F)c1 [ROCILETINIB] | > 30 µM (inactive) |  | > 30 µM (inactive) | 0.45 µM (active)
26 | O=C(NOC[C@H](O)CO)c1ccc(F)c(F)c1Nc1ccc(I)cc1F [MIRDAMETINIB] | > 30 µM (inactive) |  | > 30 µM (inactive) | > 30 µM (inactive)
27 | C=CCN(/C=C1/C(=O)O[C@H](COC)[C@@]2(C)C1=C(O)C(=O)C1=C2[C@H](OC(C)=O)C[C@]2(C)C(=O)CC[C@@H]12)CC=C [SONOLISIB] | > 30 µM (inactive) | > 30 µM (inactive) |  | > 30 µM (inactive)
28 | N#CCNC(=O)c1ccc(-c2ccnc(Nc3ccc(N4CCOCC4)cc3)n2)cc1 [MOMELOTINIB] | > 30 µM (inactive) | > 30 µM (inactive) |  | 0.822 µM (active)
29 | O=S(=O)(c1cccc2c(O)nccc12)N1CCCNCC1 [HYDROXYFASUDIL] | > 30 µM (inactive) |  | > 30 µM (inactive) | > 30 µM (inactive)
